Experimental data: patent US20240158446A1, “CYCLIC COMPOUND HAVING SELECTIVE INHIBITORY ACTION ON KRAS OVER HRAS AND NRAS” (CHUGAI SEIYAKU KABUSHIKI KAISHA, priority 2021, published 2024)
Like-named read-outs stand apart in the source and are kept apart here. *1 amine or outer side, *2 acyl side, *3 side chain or, on linkers, in order; H or OH if unused. Where a SMILES comes first, the peptide text is derived from it. Bridges are numbered along the chain shown (N, C = ends). [ ]: non-standard residue; d: D form. The star is where a group is joined. hPhe(3-Cl-4-CF3) = N[C@@H](CCc1ccc(C(F)(F)F)c(Cl)c1)C(=O)O; X37 = O=C([C@H](Cc1ccc(C(F)(F)F)cc1)N(CC1CCC1)[*:1])[*:2]; NPrPhe(4-CF3) = CCCN[C@@H](Cc1ccc(C(F)(F)F)cc1)C(=O)O; NMeGly(cPent) = CN[C@H](C(=O)O)C1CCCC1; NMeD = CN[C@@H](CC(=O)O)C(=O)O; NMeL = CN[C@@H](CC(C)C)C(=O)O; Pip = O=C(O)[C@@H]1CCCCN1; Morpholide = C1CN(*)CCO1; NMeA = CN[C@@H](C)C(=O)O; Pyrrolidide = C1CCN(*)C1; Ac5c = NC1(C(=O)O)CCCC1; Aze = O=C(O)[C@@H]1CCN1; Ac4c = NC1(C(=O)O)CCC1; Sar = CNCC(=O)O

Key:
[1] = target: GDP-bound NRAS wild-type protein (Homo sapiens, UniProt P01111); assay: Binding to NRAS by surface plasmon resonance (SPR), Single Cycle Kinetics; conditions: for NRAS/KRAS (ratio of KD value with respect to NRAS to KD value with respect to KRAS) / NRAS/KRAS (ratio of KD value for NRAS to KD value for KRAS): SPR, GDP-bound NRAS wild-type protein vs GDP-bound KRAS wild-type protein
[2] = target: GDP-bound KRAS wild-type protein (Homo sapiens, UniProt P01116); assay: Binding to KRAS by surface plasmon resonance (SPR), Single Cycle Kinetics; conditions: GDP-bound KRAS wild-type protein, read-out: KRAS KD
[3] = target: GDP-bound HRAS wild-type protein (Homo sapiens, UniProt P01112); assay: Binding to HRAS by surface plasmon resonance (SPR), Single Cycle Kinetics; conditions: for HRAS/KRAS (ratio of KD value with respect to HRAS to KD value with respect to KRAS) / HRAS/KRAS (ratio of KD value for HRAS to KD value for KRAS): SPR, GDP-bound HRAS wild-type protein vs GDP-bound KRAS wild-type protein
[4] = SPR Single Cycle Kinetics, 1:1 binding model

Chain of GDP-bound KRAS wild-type protein (P01116 whole entry): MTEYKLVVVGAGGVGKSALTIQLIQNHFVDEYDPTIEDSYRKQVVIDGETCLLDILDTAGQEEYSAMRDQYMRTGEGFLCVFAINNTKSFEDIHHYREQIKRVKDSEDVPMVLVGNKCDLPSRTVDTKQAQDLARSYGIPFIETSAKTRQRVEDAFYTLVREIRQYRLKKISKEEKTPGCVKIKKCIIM
Chain of GDP-bound NRAS wild-type protein (P01111 whole entry): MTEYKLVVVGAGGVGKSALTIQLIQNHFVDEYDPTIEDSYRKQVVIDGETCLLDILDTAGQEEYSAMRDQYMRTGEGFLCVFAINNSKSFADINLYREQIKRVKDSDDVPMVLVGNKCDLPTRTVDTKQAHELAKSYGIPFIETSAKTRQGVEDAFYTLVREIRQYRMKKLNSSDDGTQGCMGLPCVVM
Chain of GDP-bound HRAS wild-type protein (P01112 whole entry): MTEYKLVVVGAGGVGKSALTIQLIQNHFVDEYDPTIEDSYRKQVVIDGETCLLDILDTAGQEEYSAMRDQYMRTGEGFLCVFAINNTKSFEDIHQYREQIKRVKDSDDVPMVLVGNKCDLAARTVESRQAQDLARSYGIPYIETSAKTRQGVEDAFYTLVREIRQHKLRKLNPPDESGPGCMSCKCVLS

| Kd [2, 4] [pM] | Kd ([2]; SPR, Single Cycle Kinetics) [pM] | SMILES | NRAS/KRAS (ratio of KD value with respect to NRAS to KD value with respect to KRAS) [1] | HRAS/KRAS (ratio of KD value with respect to HRAS to KD value with respect to KRAS) [3] | NRAS/KRAS (ratio of KD value for NRAS to KD value for KRAS) [1] | HRAS/KRAS (ratio of KD value for HRAS to KD value for KRAS) [3] | NRAS/KRAS (ratio of KD value with respect to GDP-bound NRAS wild-type protein to KD value with respect to KRAS) ([1]; SPR KD ratio NRAS/KRAS, class symbols) | HRAS/KRAS (ratio of KD value with respect to GDP-bound HRAS wild-type protein to KD value with respect to KRAS) ([3]; SPR KD ratio HRAS/KRAS, class symbols) |
| --- | --- | --- | --- | --- | --- | --- | --- | --- |
| – | 180 | CCC[C@H]1C(=O)N[C@@H]([C@@H](C)CC)C(=O)N(C2CC2)CC(=O)N(C)[C@H]2C/C=C\CCN(C2=O)[C@@H](Cc2ccc(C(F)(F)F)cc2)C(=O)N(C)CC(=O)N[C@@H](CCc2ccc(C(F)(F)F)c(OC)c2)C(=O)N2C[C@H](OCC)C[C@H]2C(=O)NC2(CC(C)(C)C2)C(=O)N(C)[C@@H](C2CCCC2)C(=O)N(C)[C@H](C(=O)N(C)C)CC(=O)N1C [PP2105] | – | – | A (a compound having 10 or more and less than 20 is denoted as A) | A (a compound having 10 or more and less than 20 is denoted as A) | – | – |
| – | 350 | CCCOC[C@H]1C(=O)N[C@@H]([C@@H](C)CC)C(=O)N(C)CC(=O)N(C)[C@H]2C/C=C\CCN(C2=O)[C@@H](CC2CCC(F)(F)CC2)C(=O)N(C)CC(=O)N[C@@H](CCc2ccc(C(F)(F)F)c(OC)c2)C(=O)N2C[C@H](OCC)C[C@H]2C(=O)N(C)C2(CCC2)C(=O)N(C)[C@@H](C2CCCC2)C(=O)N(C)[C@H](C(=O)N(C)C)CC(=O)N1C [PP2350] | – | – | A (a compound having 10 or more and less than 20 is denoted as A) | A (a compound having 10 or more and less than 20 is denoted as A) | – | – |
| – | 5000 | CCO[C@@H]1C[C@H]2C(=O)NC3(CC(C)(C)C3)C(=O)N(C)[C@@H](C(CC)CC)C(=O)N(C)[C@H](C(=O)N(C)C)CC(=O)N(C)[C@@H](CC3CC3)C(=O)N[C@@H]([C@@H](C)CC)C(=O)N(C)CC(=O)N(C)[C@H]3C/C=C\CCN(C3=O)[C@@H](Cc3ccc(C(F)(F)F)cc3)C(=O)N(C)CC(=O)N[C@@H](CCc3cc(F)c(C(F)(F)F)c(F)c3)C(=O)N2C1 [PP2119] | – | – | A (a compound having 10 or more and less than 20 is denoted as A) | B (a compound having 3 or more and less than 10 is denoted as B) | – | – |
| 1500 | – | CCC[C@H]1C(=O)N[C@@H]([C@@H](C)CC)C(=O)N(C)CC(=O)N(C)[C@H]2C/C=C\CCN(C2=O)[C@@H](Cc2ccc(C(F)(F)F)cc2)C(=O)N(C)CC(=O)N[C@@H](CCc2ccc3c(C)cn(C)c3c2)C(=O)N2C[C@H](OCC)C[C@H]2C(=O)NC2(CC(C)(C)C2)C(=O)N(C)[C@@H](C(CC)CC)C(=O)N(C)[C@H](C(=O)N(C)C)CC(=O)N1C [PP2908] | – | – | – | – | AA (a compound having 20 or more is denoted as AA) | A (a compound having 10 or more and less than 20 is denoted as A) |

The remaining lines, values behind:

| SMILES | Kd [2, 4] [pM] | Kd ([2]; SPR, Single Cycle Kinetics) [pM] | NRAS/KRAS (ratio of KD value with respect to NRAS to KD value with respect to KRAS) [1] | HRAS/KRAS (ratio of KD value with respect to HRAS to KD value with respect to KRAS) [3] | NRAS/KRAS (ratio of KD value for NRAS to KD value for KRAS) [1] | HRAS/KRAS (ratio of KD value for HRAS to KD value for KRAS) [3] | NRAS/KRAS (ratio of KD value with respect to GDP-bound NRAS wild-type protein to KD value with respect to KRAS) ([1]; SPR KD ratio NRAS/KRAS, class symbols) | HRAS/KRAS (ratio of KD value with respect to GDP-bound HRAS wild-type protein to KD value with respect to KRAS) ([3]; SPR KD ratio HRAS/KRAS, class symbols) |
| --- | --- | --- | --- | --- | --- | --- | --- | --- |
| CC[C@H](C)[C@@H]1NC(=O)[C@H](CC(C)C)N(C)C(=O)C[C@@H](C(=O)N(C)C)N(C)C(=O)[C@H](C2CCCC2)N(C)C(=O)C2(CCCC2)NC(=O)[C@@H]2CC(F)(F)CN2C(=O)[C@H](CCc2cc(F)c(C(F)(F)F)c(F)c2)NC(=O)CN(C)C(=O)[C@H](Cc2ccc(C(F)(F)F)cc2)N2CCCC[C@@H](C2=O)N(C)C(=O)CN(C)C1=O [PP0576] | 19 | – | C (A compound having a KD ratio of 0.1 or more and less than 3 is denoted as C) | B (a compound having 3 or more and less than 10 is denoted as B) | – | – | – | – |
| CC[C@H](C)[C@@H]1NC(=O)[C@H](C)N(C)C(=O)C[C@@H](C(=O)N(C)C)N(C)C(=O)[C@H](C2CCCC2)N(C)C(=O)C2(CCC2)NC(=O)[C@@H]2CC(F)(F)CN2C(=O)[C@H](CCc2cc(F)c(C(F)(F)F)c(F)c2)NC(=O)CN(C)C(=O)[C@H](Cc2ccc(C(F)(F)F)cc2)N2CCCC[C@@H](C2=O)N(C)C(=O)CN(C)C1=O [PP0584] | 7.7 | – | C (A compound having a KD ratio of 0.1 or more and less than 3 is denoted as C) | C (A compound having a KD ratio of 0.1 or more and less than 3 is denoted as C) | – | – | – | – |
| CCCN1C(=O)[C@@H]2CCN2C(=O)[C@H](C)N(C)C(=O)[C@H]([C@@H](C)CC)NC(=O)[C@H](CC(C)C)N(C)C(=O)C[C@@H](C(=O)N2CCCC2)N(C)C(=O)[C@H](C2CCCC2)N(C)C(=O)C2(CCCC2)NC(=O)[C@@H]2CCCN2C(=O)[C@H](CCc2ccc(C(F)(F)F)c(Cl)c2)NC(=O)CN(C)C(=O)[C@@H]1Cc1ccc(C(F)(F)F)cc1 [PP0179] ([NMeL]I[NMeA][Aze][NPrPhe(4-CF3)][Sar][hPhe(3-Cl-4-CF3)]P[Ac5c][NMeGly(cPent)][NMeD]-Pyrrolidide; lactam N-11) | 110 | – | – | – | C (A compound having a KD ratio of 0.1 or more and less than 3 is denoted as C) | B (a compound having 3 or more and less than 10 is denoted as B) | – | – |
| CC[C@H](C)[C@@H]1NC(=O)[C@H](CC(C)C)N(C)C(=O)C[C@@H](C(=O)N2CCOCC2)N(C)C(=O)[C@H](C2CCCC2)N(C)C(=O)C2(CCCC2)NC(=O)[C@@H]2CCCN2C(=O)[C@H](CCc2ccc(C(F)(F)F)c(Cl)c2)NC(=O)CN(C)C(=O)[C@H](Cc2ccc(C(F)(F)F)cc2)N(CC2CCC2)C(=O)CN(C)C(=O)CN(C)C1=O [PP0123] ([NMeL]I[Sar][Sar][X37][Sar][hPhe(3-Cl-4-CF3)]P[Ac5c][NMeGly(cPent)][NMeD]-Morpholide; lactam N-11) | 830 | – | – | – | B (a compound having 3 or more and less than 10 is denoted as B) | C (A compound having a KD ratio of 0.1 or more and less than 3 is denoted as C) | – | – |
| CCO[C@@H]1C[C@H]2C(=O)NC3(CCC3)C(=O)N(C)[C@@H](C3CCCC3)C(=O)N(C)[C@H](C(=O)N(C)C)CC(=O)N(C)[C@@H](Cc3ccc(F)cc3)C(=O)N[C@@H]([C@@H](C)CC)C(=O)N(C)CC(=O)N(C)[C@H]3CCCCCN(C3=O)[C@@H](Cc3ccc(C(F)(F)F)cc3)C(=O)N(C)CC(=O)N[C@@H](CCc3cc(F)c(C(F)(F)F)c(F)c3)C(=O)N2C1 [PP0936] | – | 420 | – | – | B (a compound having 3 or more and less than 10 is denoted as B) | B (a compound having 3 or more and less than 10 is denoted as B) | – | – |
| CCCN1C(=O)CN(C)C(=O)CNC(=O)[C@H]([C@@H](C)CC)NC(=O)[C@H](CC(C)C)N(C)C(=O)C[C@@H](C(=O)N(C)C)N(C)C(=O)[C@H](C2CCCC2)N(C)C(=O)C2(CCC2)NC(=O)[C@@H]2CCCN2C(=O)[C@H](CCc2ccc(C(F)(F)F)c(Cl)c2)NC(=O)CN(C)C(=O)[C@@H]1Cc1ccc(C(F)(F)F)cc1 [PP0418] ([NMeL]IG[Sar][NPrPhe(4-CF3)][Sar][hPhe(3-Cl-4-CF3)]P[Ac4c][NMeGly(cPent)][NMeD]-NMe2; lactam N-11) | 74 | – | B (a compound having 3 or more and less than 10 is denoted as B) | C (A compound having a KD ratio of 0.1 or more and less than 3 is denoted as C) | – | – | – | – |
| CCCN1C(=O)CN(C)C(=O)[C@@H]2CCN2C(=O)[C@H]([C@@H](C)CC)NC(=O)[C@H](CC(C)C)N(C)C(=O)C[C@@H](C(=O)N2CCOCC2)N(C)C(=O)[C@H](C2CCCC2)N(C)C(=O)C2(CCCC2)NC(=O)[C@@H]2CCCCN2C(=O)[C@H](CCc2ccc(C(F)(F)F)c(Cl)c2)NC(=O)CN(C)C(=O)[C@@H]1Cc1ccc(C(F)(F)F)cc1 [PP0311] ([NMeL]I[Aze][Sar][NPrPhe(4-CF3)][Sar][hPhe(3-Cl-4-CF3)][Pip][Ac5c][NMeGly(cPent)][NMeD]-Morpholide; lactam N-11) | 3300 | – | – | – | B (a compound having 3 or more and less than 10 is denoted as B) | B (a compound having 3 or more and less than 10 is denoted as B) | – | – |
| CC[C@H](C)[C@@H]1NC(=O)[C@H](CC(C)C)N(C)C(=O)C[C@@H](C(=O)N2CCOCC2)N(CC)C(=O)[C@H](C2CCCC2)N(C)C(=O)C2(CCCC2)NC(=O)[C@@H]2CCCN2C(=O)[C@H](CCc2ccc(C(F)(F)F)c(Cl)c2)NC(=O)CN(C)C(=O)[C@H](Cc2ccc(F)cc2)N2CCCCC[C@@H](C2=O)N(C)C(=O)CN(C)C1=O [PP0970] | – | 2200 | – | – | B (a compound having 3 or more and less than 10 is denoted as B) | B (a compound having 3 or more and less than 10 is denoted as B) | – | – |
| CCCN1C(=O)[C@@H]2CCN2C(=O)[C@H](C)N(C)C(=O)[C@H]([C@@H](C)CC)NC(=O)[C@H](CC(C)C)N(C)C(=O)C[C@@H](C(=O)N2CCOCC2)N(C)C(=O)[C@H](C2CCCC2)N(C)C(=O)C2(CCCC2)NC(=O)[C@@H]2CCCN2C(=O)[C@H](CCc2ccc(C(F)(F)F)c(Cl)c2)NC(=O)CN(C)C(=O)[C@@H]1Cc1ccc(C(F)(F)F)cc1 [PP0053] ([NMeL]I[NMeA][Aze][NPrPhe(4-CF3)][Sar][hPhe(3-Cl-4-CF3)]P[Ac5c][NMeGly(cPent)][NMeD]-Morpholide; lactam N-11) | 120 | – | – | – | C (A compound having a KD ratio of 0.1 or more and less than 3 is denoted as C) | C (A compound having a KD ratio of 0.1 or more and less than 3 is denoted as C) | – | – |
